Laboratory results from US7988776B2, “Coloring composition, thermal transfer recording ink sheet, thermal transfer recording method, color toner, inkjet ink, color filter, and azo dye” (Fujifilm Corporation, priority 2007, dated 2011).

Key:
Type in all cases: physicochemical
[1] = Dye solubility in ink sheet construction; set-up: key: A (easily soluble); B (soluble); C (difficult to dissolve, but soluble); settings: dye-donating layer-forming coating composition, methyl ethyl ketone/toluene (1/1)
From the text: A polyester film (Lumirror, trade name by Toray) having a thickness of 6.0 μm and processed for heat-resistant lubrication with a thermosetting acrylic resin (thickness 1 μm) on its back was used as a support.
The dye solubility was ranked in three, A (easily soluble), B (soluble) r C (difficult to dissolve, but soluble).

[2] = Light fastness of recorded images under Xe light; settings: retention of status A reflection density 1.0 after Xe light (17000 lux) for 7 days
Method: Next, the recorded samples were exposed to an Xe light (17000 lux) for 7 days, and tested for the light stability (light fastness) of the recorded images. After the exposure, the status A reflection density of the part of each sample having an original status A reflection density of 1.0 before the exposure was measured, and the retention (by percentage) to the reflection density of 1.0 after exposure to that before exposure indicates the image stability. With the retention percentage, the samples were ranked in three, A (from 80% to less than 100%), B (from 60% to less than 80%), C (less than 60%).

[3] = Absorption spectrometry in ethyl acetate solution (maximum absorption wavelength); settings: concentration 1×10^−6 mol/L, optical path length 10 mm
Method: The thus-obtained compounds (1), (2), (5) and (10) were analyzed absorption spectrometry in an ethyl acetate solution (concentration: 1×10^−6 mol/L, optical path length: 10 mm).

- Solubility [1]: A
- Light Fastness [2]: A (A (from 80% to less than 100%))
- Maximum Absorption Wavelength [3]: 539 nm
SMILES: C=CCN(CC=C)c1ccc(/N=N/c2c(C#N)c(C(C)(C)C)nn2S(C)(=O)=O)c(NC(C)=O)c1 [(5)]
